Results as given in US7550469B2, “Heterocyclic amide derivatives and their use as dopamine D3 receptor ligands” (Aventis Pharmaceuticals Inc., priority 2001, dated 2009).
Read-outs that look alike come from different tables or passages of the source.

Target: T1, cloned human dopamine D3 receptors (Homo sapiens, UniProt P35462)
T1 construct: expressed in transfected cells; membrane homogenate
Experiment: [N-Methyl-3H]Spiroperidol binding to cloned human dopamine D3 receptors (Protocol 1)
Method in brief: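 Membranes from CHO cells stably expressing cloned human D3 receptor were used for [N-methyl-3H]spiroperidol (60-90 Ci/mmol) binding. Assay buffer was 0.05 M Tris HCl pH 7.7 with 120 mM NaCl, 5 mM KCl, 2 mM CaCl2 and 1 mM MgCl2, optionally 0.1% ascorbic acid; total ligand concentration calculated from added CPM.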

[1] = the 16th table, read-out: D3 Ki
[2] = the 14th table, read-out: D3 Ki

T1 sequence (P35462 whole entry): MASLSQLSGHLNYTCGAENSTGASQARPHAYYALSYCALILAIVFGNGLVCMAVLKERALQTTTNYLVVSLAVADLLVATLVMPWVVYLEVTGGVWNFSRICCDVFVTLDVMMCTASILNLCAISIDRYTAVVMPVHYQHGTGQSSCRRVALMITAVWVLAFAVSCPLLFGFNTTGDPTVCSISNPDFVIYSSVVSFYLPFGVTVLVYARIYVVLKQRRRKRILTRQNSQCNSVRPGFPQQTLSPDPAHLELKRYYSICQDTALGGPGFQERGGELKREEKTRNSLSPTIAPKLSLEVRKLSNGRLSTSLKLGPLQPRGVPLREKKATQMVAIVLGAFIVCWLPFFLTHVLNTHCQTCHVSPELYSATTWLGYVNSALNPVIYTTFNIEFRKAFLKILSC

Ki (read-out: D3K1) [nM] | Ki (Table 2, read-out: D3K1) [nM] | Ki [1] [nM] | Ki [2] [nM] | SMILES
23 |  |  | 23 | O=C(NCCCCCN1CCN(c2csc3cc(C(F)(F)F)ccc23)CC1)c1cccc(Cl)c1 [compound 826765]
11 |  |  | 11 | COc1cc(OC)cc(C(=O)NCCCCCN2CCN(c3csc4cc(C(F)(F)F)ccc34)CC2)c1 [compound 826766]
14 |  |  | 14 | O=C(NCCCCCN1CCN(c2csc3cc(C(F)(F)F)ccc23)CC1)c1ccc(OC(F)(F)F)cc1 [compound 826767]
23 |  |  | 23 | O=C(NCCCCCN1CCN(c2csc3cc(C(F)(F)F)ccc23)CC1)c1cccc2ccccc12 [compound 826768]
7 |  |  | 7 | O=C(NCCCCCN1CCN(c2csc3cc(C(F)(F)F)ccc23)CC1)c1ccc2ccccc2c1 [compound 826769]
14 |  |  | 14 | O=C(NCCCCCN1CCN(c2csc3cc(C(F)(F)F)ccc23)CC1)c1cccc(C(F)(F)F)c1 [compound 826770]
6.7 |  |  | 6.7 | Cc1ccccc1C(=O)NCCCCCN1CCN(c2csc3cc(C(F)(F)F)ccc23)CC1 [compound 826771]
7.8 |  |  | 7.8 | O=C(NCCCCCN1CCN(c2csc3cc(C(F)(F)F)ccc23)CC1)c1cccc(F)c1 [compound 826772]
11 |  |  | 11 | O=C(NCCCCCN1CCN(c2csc3cc(C(F)(F)F)ccc23)CC1)c1cc2ccccc2s1 [compound 826773]
 |  |  | 8.25 | O=C(NCCCCCN1CCN(c2csc3cc(F)ccc23)CC1)c1cccs1 [compound 826774]
 |  |  | 6.24 | O=C(NCCCCCN1CCN(c2csc3cc(F)ccc23)CC1)c1cccc(Cl)c1 [compound 826775]
 |  |  | 1.27 | COc1cc(OC)cc(C(=O)NCCCCCN2CCN(c3csc4cc(F)ccc34)CC2)c1 [compound 826776]
 |  |  | 4.56 | O=C(NCCCCCN1CCN(c2csc3cc(F)ccc23)CC1)c1ccc(OC(F)(F)F)cc1 [compound 826777]
 |  |  | 2.75 | O=C(NCCCCCN1CCN(c2csc3cc(F)ccc23)CC1)c1cccc2ccccc12 [compound 826778]
 |  |  | 0.984 | O=C(NCCCCCN1CCN(c2csc3cc(F)ccc23)CC1)c1ccc2ccccc2c1 [compound 826779]
 |  |  | 4.46 | O=C(NCCCCCN1CCN(c2csc3cc(F)ccc23)CC1)c1cccc(C(F)(F)F)c1 [compound 826780]
 |  |  | 9.94 | Cc1ccccc1C(=O)NCCCCCN1CCN(c2csc3cc(F)ccc23)CC1 [compound 826781]
 |  |  | 4.55 | O=C(NCCCCCN1CCN(c2csc3cc(F)ccc23)CC1)c1cccc(F)c1 [compound 826782]
 |  |  | 2.7 | O=C(NCCCCCN1CCN(c2csc3cc(F)ccc23)CC1)c1cc2ccccc2s1 [compound 826783]
 |  |  | 3.28 | O=C(NCCCCCN1CCN(c2csc3cc(F)ccc23)CC1)c1cc2ccccc2[nH]1 [compound 826784]
 |  |  | 1.43 | COc1ccc2[nH]c(C(=O)NCCCCCN3CCN(c4csc5cc(F)ccc45)CC3)cc2c1 [compound 826785]
 |  |  | 1.09 | Cn1c(C(=O)NCCCCCN2CCN(c3csc4cc(F)ccc34)CC2)cc2ccccc21 [compound 826786]
 |  |  | 1.19 | O=C(NCCCCCN1CCN(c2csc3cc(F)ccc23)CC1)c1c[nH]c2ccccc12 [compound 826787]
 |  |  | 5.66 | O=C(NCCCCCN1CCN(c2csc3cc(F)ccc23)CC1)c1ccc2cc[nH]c2c1 [compound 826790]
 |  |  | 11.9 | O=C(NCCCCCN1CCN(c2csc3cc(F)ccc23)CC1)c1n[nH]c2ccccc12 [compound 826791]

The next lines start with the compound.

SMILES | Ki (read-out: D3K1) [nM] | Ki (Table 2, read-out: D3K1) [nM] | Ki [1] [nM] | Ki [2] [nM]
N#Cc1cccc(C(=O)NC/C=C\CN2CCN(c3csc4cc(C(F)(F)F)ccc34)CC2)c1 [compound 826343] | 53 |  |  | 
COc1cccc(C(=O)NC/C=C\CN2CCN(c3csc4cc(C(F)(F)F)ccc34)CC2)c1 [compound 826344] | 29 |  |  | 
O=C(CCC1CCCC1)NC/C=C\CN1CCN(c2csc3cc(C(F)(F)F)ccc23)CC1 [compound 826345] | 77 |  |  | 
O=C(NC/C=C\CN1CCN(c2csc3cc(C(F)(F)F)ccc23)CC1)c1cccc(C(F)(F)F)c1 [compound 826346] | 170 |  |  | 
O=C(COc1ccccc1)NC/C=C\CN1CCN(c2csc3cc(C(F)(F)F)ccc23)CC1 [compound 826347] | 67 |  |  | 
O=C(NC/C=C\CN1CCN(c2csc3cc(C(F)(F)F)ccc23)CC1)c1ccc(OC(F)(F)F)cc1 [compound 826348] | 61 |  |  | 
O=C(COCc1ccccc1)NC/C=C\CN1CCN(c2csc3cc(C(F)(F)F)ccc23)CC1 [compound 826349] | 180 |  |  | 
O=C(NCCCCN1CCCN(c2csc3cc(F)ccc23)CC1)c1ccc2nonc2c1 [compound 826699] |  | 6.73 | 6.73 | 
COc1ccc2[nH]c(C(=O)NCCCCCCN3CCN(c4csc5cc(C(F)(F)F)ccc45)CC3)cc2c1 [compound 826738] | 6.1 |  |  | 6.1
Cn1c(C(=O)NCCCCCCN2CCN(c3csc4cc(C(F)(F)F)ccc34)CC2)cc2ccccc21 [compound 826739] | 2.1 |  |  | 2.1
O=C(NCCCCCCN1CCN(c2csc3cc(C(F)(F)F)ccc23)CC1)c1c[nH]c2ccccc12 [compound 826740] | 44 |  |  | 44
O=C(NCCCCCCN1CCN(c2csc3cc(C(F)(F)F)ccc23)CC1)c1cccc2[nH]ccc12 [compound 826741] | 9.8 |  |  | 9.8
O=C(NCCCCCCN1CCN(c2csc3cc(C(F)(F)F)ccc23)CC1)c1ccc2cc[nH]c2c1 [compound 826742] | 1.7 |  |  | 1.7
O=C(NCCCCCCN1CCN(c2csc3cc(C(F)(F)F)ccc23)CC1)c1n[nH]c2ccccc12 [compound 826743] | 15 |  |  | 15
O=C(NCCCCCCN1CCN(c2csc3cc(C(F)(F)F)ccc23)CC1)c1cccs1 [compound 826746] | 0.8 |  |  | 0.8
O=C(NCCCCCCN1CCN(c2csc3cc(C(F)(F)F)ccc23)CC1)c1cccc(Cl)c1 [compound 826747] | 0.12 |  |  | 0.12
COc1cc(OC)cc(C(=O)NCCCCCCN2CCN(c3csc4cc(C(F)(F)F)ccc34)CC2)c1 [compound 826748] | 4.9 |  |  | 4.9
O=C(NCCCCCCN1CCN(c2csc3cc(C(F)(F)F)ccc23)CC1)c1ccc(OC(F)(F)F)cc1 [compound 826749] | 8.7 |  |  | 8.7
O=C(NCCCCCCN1CCN(c2csc3cc(C(F)(F)F)ccc23)CC1)c1cccc2ccccc12 [compound 826750] | 3.2 |  |  | 3.2
O=C(NCCCCCCN1CCN(c2csc3cc(C(F)(F)F)ccc23)CC1)c1ccc2ccccc2c1 [compound 826751] | 2.8 |  |  | 2.8
O=C(NCCCCCCN1CCN(c2csc3cc(C(F)(F)F)ccc23)CC1)c1cccc(C(F)(F)F)c1 [compound 826752] | 14 |  |  | 14
Cc1ccccc1C(=O)NCCCCCCN1CCN(c2csc3cc(C(F)(F)F)ccc23)CC1 [compound 826753] | 4.4 |  |  | 4.4
O=C(NCCCCCCN1CCN(c2csc3cc(C(F)(F)F)ccc23)CC1)c1cc2ccccc2s1 [compound 826754] | 3.2 |  |  | 3.2
O=C(NCCCCN1CCCN(c2csc3cc(F)ccc23)CC1)c1c2ccccc2cc2ccccc12 [compound 826762] |  | 57 | 57 | 
O=C(NCCCCCN1CCN(c2csc3cc(C(F)(F)F)ccc23)CC1)c1cccs1 [compound 826764] | 7.8 |  |  | 7.8
